Results: US20080009418A1, “Selective Inhibitors” (Alchemia LTD., priority 2004, published 2008)

Experiments:
[1] = target: T1, Human melanin-concentrating hormone (MCH1) (Homo sapiens, UniProt Q99705); assay: Radioligand binding, human melanin-concentrating hormone MCH1 membranes, FlashPlate, [125I]-S36057; details: compound at 10 μM
T1 construct: purchased Perkin Elmer Biosignal
Summary of the method: (§1)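 Cloned human receptor membranes were coated onto FlashPlate wells and incubated with radioligand and compound (added from a 0.5 mM DMSO daughter plate) for 1 hour at room temperature in the dark. Scintillation counting gave percent inhibition, with DMSO defining total and reference ligand defining non-specific binding.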

Human κ-Opioid (KOP) = target: T2, Human κ-Opioid (KOP) (Homo sapiens, UniProt P41145); assay: Radioligand binding, human κ-opioid (KOP) membranes, filtration, [3H]-Diprenorphine; details: compound at 10 μM, [3H]-Diprenorphine
T2 construct: purchased Perkin Elmer Biosignal
Summary of the method: (§2)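 Membranes from cloned human receptors were incubated with compound and radioligand for 1 hour at room temperature. Bound ligand was collected on 0.3% PEI-soaked filters, washed with cold 50 mM Tris-HCl pH 7.4, and counted by scintillation. Percent inhibition was computed against DMSO totals and reference-ligand nonspecific wells.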

Human Melanocortin (MC3) = target: T3, Human Melanocortin (MC3) (Homo sapiens, UniProt P41968); assay: Radioligand binding, human melanocortin MC3 membranes, FlashPlate, [125I]-NDP-αMSH; details: compound at 10 μM, [125I]-NDP-αMSH
T3 construct: purchased Perkin Elmer Biosignal
Summary of the method: as §1

Human opioid (ORL1) = target: T4, Human opioid (ORL1) (Homo sapiens, UniProt P41146); assay: Radioligand binding, human opioid ORL1 membranes, FlashPlate, [125I]-Nociceptin; details: compound at 10 μM, [125I]-Nociceptin
T4 construct: purchased Perkin Elmer Biosignal
Summary of the method: as §1

Human neurokinin (NK1) = target: T5, Human neurokinin (NK1) (Homo sapiens, UniProt P25103); assay: Radioligand binding, human neurokinin NK1 membranes, filtration, [125I]-Substance P; details: compound at 10 μM, [125I]-Substance P
T5 construct: purchased Perkin Elmer Biosignal
Summary of the method: as §2

Mouse urotensin (mUR2) = target: T6, Mouse urotensin (mUR2) (Mus musculus, UniProt Q8VIH9); assay: Radioligand binding, mouse urotensin mUR2 membranes, FlashPlate, [125I]-Urotensin II; details: compound at 10 μM, [125I]-Urotensin II
T6 construct: purchased Perkin Elmer Biosignal
T6 sequence (Q8VIH9 1-385): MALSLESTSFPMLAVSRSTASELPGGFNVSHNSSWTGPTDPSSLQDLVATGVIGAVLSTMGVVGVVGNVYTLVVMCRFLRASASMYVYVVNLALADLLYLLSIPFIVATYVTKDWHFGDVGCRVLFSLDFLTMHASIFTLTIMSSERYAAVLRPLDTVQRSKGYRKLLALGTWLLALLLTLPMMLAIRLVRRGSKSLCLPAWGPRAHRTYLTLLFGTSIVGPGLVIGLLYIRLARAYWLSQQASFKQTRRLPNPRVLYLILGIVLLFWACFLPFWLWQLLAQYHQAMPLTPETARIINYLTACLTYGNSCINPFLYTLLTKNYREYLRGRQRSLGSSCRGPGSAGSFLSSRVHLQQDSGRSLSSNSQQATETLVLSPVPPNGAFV
Summary of the method: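 Cloned mouse urotensin (mUR2) receptor membranes from Perkin Elmer Biosignal were immobilized in FlashPlate microplates using a proprietary coating. Each well got 19.5 μl buffer, then 0.5 μl of DMSO, reference ligand, or compound. Adding 5 μl of [125I]-Urotensin II, diluted to 5× final concentration in binding buffer, started binding. Plates were sealed with TopSeal-A and incubated 1 hour at room temperature in the dark. Wells were counted for 30 seconds each on a TopCount after a 60-second delay, and percentage inhibition was calculated.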

Human Melanocortin (MC4) = target: T7, Human Melanocortin (MC4) (Homo sapiens, UniProt P32245); assay: Radioligand binding, human melanocortin MC4 membranes, FlashPlate, [125I]-NDP-αMSH; details: compound at 10 μM, [125I]-NDP-αMSH
T7 construct: purchased Perkin Elmer Biosignal
Summary of the method: as §1

[2] = target: T8, Human neuropeptide Y (NPY-Y1) (Homo sapiens, UniProt P25929); assay: Radioligand binding, human neuropeptide Y NPY-Y1 membranes, FlashPlate, [125I]-PYY; details: compound at 10 μM, [125I]-PYY
T8 construct: purchased Perkin Elmer Biosignal
T8 sequence (P25929 1-384): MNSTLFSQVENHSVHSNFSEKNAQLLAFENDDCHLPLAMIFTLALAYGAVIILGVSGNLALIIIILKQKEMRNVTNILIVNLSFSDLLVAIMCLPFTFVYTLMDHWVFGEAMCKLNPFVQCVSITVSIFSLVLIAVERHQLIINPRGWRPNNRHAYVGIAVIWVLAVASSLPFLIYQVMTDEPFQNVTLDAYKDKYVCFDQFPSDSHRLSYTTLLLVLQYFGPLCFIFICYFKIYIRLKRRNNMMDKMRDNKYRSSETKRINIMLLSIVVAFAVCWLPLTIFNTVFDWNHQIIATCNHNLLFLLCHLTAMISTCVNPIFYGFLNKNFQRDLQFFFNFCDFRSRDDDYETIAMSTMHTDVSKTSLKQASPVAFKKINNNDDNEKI
Summary of the method: as §1

Human μ-opioid (MOP) = target: T9, Human μ-opioid (MOP) (Homo sapiens, UniProt P35372); assay: Radioligand binding, human μ-opioid (MOP) membranes, FlashPlate, [3H]-Naloxone; details: compound at 10 μM, [3H]-Naloxone
T9 construct: purchased Perkin Elmer Biosignal
Summary of the method: as §1

Human melanocortin (MC5) = target: T10, Human melanocortin (MC5) (Homo sapiens, UniProt P33032); assay: Radioligand binding, human melanocortin MC5 membranes, FlashPlate, [125I]-NDP-αMSH; details: compound at 10 μM, [125I]-NDP-αMSH
T10 construct: purchased Perkin Elmer Biosignal
Summary of the method: as §1

Human δ-opioid (DOP) = target: T11, Human δ-opioid (DOP) (Homo sapiens, UniProt P41143); assay: Radioligand binding, human δ-opioid (DOP) membranes, FlashPlate, [3H]-Bremazocine; details: compound at 10 μM, [3H]-Bremazocine
T11 construct: purchased Perkin Elmer Biosignal
Summary of the method: as §1

T5 sequence (P25103 whole entry): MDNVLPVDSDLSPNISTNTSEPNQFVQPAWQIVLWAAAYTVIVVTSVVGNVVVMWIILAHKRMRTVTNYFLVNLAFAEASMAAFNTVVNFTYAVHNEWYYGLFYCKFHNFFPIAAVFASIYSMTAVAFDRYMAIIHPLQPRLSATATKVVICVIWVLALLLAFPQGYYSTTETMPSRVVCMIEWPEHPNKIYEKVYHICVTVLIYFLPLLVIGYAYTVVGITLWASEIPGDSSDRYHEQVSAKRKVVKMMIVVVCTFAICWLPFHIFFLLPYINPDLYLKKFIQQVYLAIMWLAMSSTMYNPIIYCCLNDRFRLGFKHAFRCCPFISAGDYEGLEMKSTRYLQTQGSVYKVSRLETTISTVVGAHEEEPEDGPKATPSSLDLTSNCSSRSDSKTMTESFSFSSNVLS
T2 sequence (P41145 whole entry): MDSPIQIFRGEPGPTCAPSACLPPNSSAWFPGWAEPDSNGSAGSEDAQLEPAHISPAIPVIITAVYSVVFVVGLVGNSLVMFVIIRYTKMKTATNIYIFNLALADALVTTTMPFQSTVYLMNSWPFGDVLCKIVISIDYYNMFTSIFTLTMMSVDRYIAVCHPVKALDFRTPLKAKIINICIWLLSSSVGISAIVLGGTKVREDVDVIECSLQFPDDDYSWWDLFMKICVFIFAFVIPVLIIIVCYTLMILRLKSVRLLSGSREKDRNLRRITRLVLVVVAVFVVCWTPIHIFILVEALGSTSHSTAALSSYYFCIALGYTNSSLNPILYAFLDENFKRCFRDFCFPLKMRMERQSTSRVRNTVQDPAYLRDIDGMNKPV
T4 sequence (P41146 whole entry): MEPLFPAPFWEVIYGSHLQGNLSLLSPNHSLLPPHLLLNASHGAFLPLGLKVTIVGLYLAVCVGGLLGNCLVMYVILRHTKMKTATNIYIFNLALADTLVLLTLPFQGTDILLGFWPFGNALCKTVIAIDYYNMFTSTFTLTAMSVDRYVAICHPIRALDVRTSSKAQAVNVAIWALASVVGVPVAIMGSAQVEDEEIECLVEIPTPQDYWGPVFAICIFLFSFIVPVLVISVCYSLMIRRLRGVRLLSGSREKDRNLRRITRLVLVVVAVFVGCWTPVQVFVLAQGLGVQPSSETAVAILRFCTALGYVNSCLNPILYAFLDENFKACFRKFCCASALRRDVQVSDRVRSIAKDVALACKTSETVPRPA
T9 sequence (P35372 whole entry): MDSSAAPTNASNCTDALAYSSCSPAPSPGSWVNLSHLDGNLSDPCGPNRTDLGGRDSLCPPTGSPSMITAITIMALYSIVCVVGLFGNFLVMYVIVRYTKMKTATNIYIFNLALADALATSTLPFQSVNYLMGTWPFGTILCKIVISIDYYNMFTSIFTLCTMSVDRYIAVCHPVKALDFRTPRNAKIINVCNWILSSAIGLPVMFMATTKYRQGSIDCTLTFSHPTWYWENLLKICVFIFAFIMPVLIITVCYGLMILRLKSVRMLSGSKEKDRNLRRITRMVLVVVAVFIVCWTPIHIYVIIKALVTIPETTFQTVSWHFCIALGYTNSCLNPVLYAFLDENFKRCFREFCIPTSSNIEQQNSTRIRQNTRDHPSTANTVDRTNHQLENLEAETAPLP
T7 sequence (P32245 whole entry): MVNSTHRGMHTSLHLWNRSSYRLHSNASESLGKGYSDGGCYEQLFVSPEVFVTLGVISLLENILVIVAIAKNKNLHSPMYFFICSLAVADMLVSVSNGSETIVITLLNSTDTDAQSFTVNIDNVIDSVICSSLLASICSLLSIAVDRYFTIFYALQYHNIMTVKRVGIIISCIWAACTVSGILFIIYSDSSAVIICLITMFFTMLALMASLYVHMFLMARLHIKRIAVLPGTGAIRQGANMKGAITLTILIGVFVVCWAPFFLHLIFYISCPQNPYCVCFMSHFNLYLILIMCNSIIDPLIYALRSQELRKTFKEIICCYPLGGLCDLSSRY
T11 sequence (P41143 whole entry): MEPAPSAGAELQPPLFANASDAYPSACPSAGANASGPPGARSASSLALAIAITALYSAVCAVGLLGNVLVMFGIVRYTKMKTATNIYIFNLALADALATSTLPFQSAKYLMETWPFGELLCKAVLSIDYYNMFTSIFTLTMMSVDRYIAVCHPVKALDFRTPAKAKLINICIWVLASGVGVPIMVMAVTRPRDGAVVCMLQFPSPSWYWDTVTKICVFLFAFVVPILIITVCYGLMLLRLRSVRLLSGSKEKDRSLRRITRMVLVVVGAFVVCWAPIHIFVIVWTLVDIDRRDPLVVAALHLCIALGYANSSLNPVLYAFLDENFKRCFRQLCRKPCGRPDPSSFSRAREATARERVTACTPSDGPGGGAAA
T1 sequence (Q99705 whole entry): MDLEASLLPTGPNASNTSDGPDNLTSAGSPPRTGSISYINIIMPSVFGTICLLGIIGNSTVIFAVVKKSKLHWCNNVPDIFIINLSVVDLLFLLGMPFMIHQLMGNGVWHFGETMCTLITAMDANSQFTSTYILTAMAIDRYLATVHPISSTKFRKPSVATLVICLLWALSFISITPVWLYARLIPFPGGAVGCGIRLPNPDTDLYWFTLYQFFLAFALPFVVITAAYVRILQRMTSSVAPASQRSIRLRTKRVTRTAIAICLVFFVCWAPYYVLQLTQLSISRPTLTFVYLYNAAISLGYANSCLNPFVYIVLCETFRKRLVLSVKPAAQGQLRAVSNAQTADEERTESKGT
T3 sequence (P41968 whole entry): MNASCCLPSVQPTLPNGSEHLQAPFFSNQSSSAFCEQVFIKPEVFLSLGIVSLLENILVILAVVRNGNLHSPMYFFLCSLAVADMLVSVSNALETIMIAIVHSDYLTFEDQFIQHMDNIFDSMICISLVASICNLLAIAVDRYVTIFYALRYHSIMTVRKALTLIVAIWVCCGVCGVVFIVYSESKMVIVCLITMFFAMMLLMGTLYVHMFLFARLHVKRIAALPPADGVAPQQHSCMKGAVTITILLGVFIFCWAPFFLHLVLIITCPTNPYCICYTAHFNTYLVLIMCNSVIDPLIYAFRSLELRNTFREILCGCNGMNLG
T10 sequence (P33032 whole entry): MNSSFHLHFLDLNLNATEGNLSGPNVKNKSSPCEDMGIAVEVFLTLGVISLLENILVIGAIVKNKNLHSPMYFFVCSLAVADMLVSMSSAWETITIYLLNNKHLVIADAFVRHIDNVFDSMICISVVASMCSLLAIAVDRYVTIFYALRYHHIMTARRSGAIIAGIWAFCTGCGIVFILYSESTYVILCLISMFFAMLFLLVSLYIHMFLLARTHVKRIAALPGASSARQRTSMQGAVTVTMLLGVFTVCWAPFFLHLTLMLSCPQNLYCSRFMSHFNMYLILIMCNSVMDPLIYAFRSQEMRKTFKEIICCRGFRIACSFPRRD

Row | SMILES | A6: inhibition of radioligand binding ([1]; [125I]-S36057, FlashPlate) | A2: inhibition of radioligand binding (Human κ-Opioid (KOP); filtration) | A3: inhibition of radioligand binding (Human Melanocortin (MC3); FlashPlate) | A10: inhibition of radioligand binding (Human opioid (ORL1); FlashPlate) | A8: inhibition of radioligand binding (Human neurokinin (NK1); filtration) | A11: inhibition of radioligand binding (Mouse urotensin (mUR2); FlashPlate) | A4: inhibition of radioligand binding (Human Melanocortin (MC4); FlashPlate) | A9: inhibition of radioligand binding ([2]; FlashPlate) | A7: inhibition of radioligand binding (Human μ-opioid (MOP); FlashPlate) | A5: inhibition of radioligand binding (Human melanocortin (MC5); FlashPlate) | A1: inhibition of radioligand binding (Human δ-opioid (DOP); FlashPlate) | further results
1 | CSC1OC(COCc2ccc(-c3ccccc3)cc2)C(O)C(OCc2ccccc2)C1NC(=O)CNC(=N)N (stereo not drawn) [compound 255] | − (“−” indicates less than 50% inhibition at 10 μM) | − (“−” indicates less than 50% inhibition at 10 μM) | − (“−” indicates less than 50% inhibition at 10 μM) | − (“−” indicates less than 50% inhibition at 10 μM) | + (“+” indicates greater than 50% inhibition at 10 μM) | − (“−” indicates less than 50% inhibition at 10 μM) | + (“+” indicates greater than 50% inhibition at 10 μM) | − (“−” indicates less than 50% inhibition at 10 μM) | − (“−” indicates less than 50% inhibition at 10 μM) | + (“+” indicates greater than 50% inhibition at 10 μM) | − (“−” indicates less than 50% inhibition at 10 μM) | –
2 | COCC1OC(OCc2ccc(Cl)cc2)C(NC(=O)CCCNC(=N)N)C(OCc2ccccc2)C1O (stereo not drawn) [compound 198] | − (“−” indicates less than 50% inhibition at 10 μM) | − (“−” indicates less than 50% inhibition at 10 μM) | − (“−” indicates less than 50% inhibition at 10 μM) | − (“−” indicates less than 50% inhibition at 10 μM) | + (“+” indicates greater than 50% inhibition at 10 μM) | − (“−” indicates less than 50% inhibition at 10 μM) | − (“−” indicates less than 50% inhibition at 10 μM) | − (“−” indicates less than 50% inhibition at 10 μM) | − (“−” indicates less than 50% inhibition at 10 μM) | + (“+” indicates greater than 50% inhibition at 10 μM) | − (“−” indicates less than 50% inhibition at 10 μM) | –
3 | NCCC(=O)N[C@H]1C(OCc2ccc3ccccc3c2)O[C@H](COCc2ccc3ccccc3c2)[C@@H](O)[C@@H]1OCc1ccc2ccccc2c1 (stereo partly drawn) [compound 442] | – | – | – | – | – | – | – | – | – | – | – | A6: inhibition of radioligand binding ([1]; [125I]-S36057, human MCH1 membranes): + (“+” indicates greater than 50% inhibition at 10 μM); A2: inhibition of radioligand binding (Human κ-Opioid (KOP); human KOP membranes): − (“−” indicates less than 50% inhibition at 10 μM); A3: inhibition of radioligand binding (Human Melanocortin (MC3); human MC3 membranes): + (“+” indicates greater than 50% inhibition at 10 μM); A10: inhibition of radioligand binding (Human opioid (ORL1); human ORL1 membranes): + (“+” indicates greater than 50% inhibition at 10 μM); A8: inhibition of radioligand binding (Human neurokinin (NK1); human NK1 membranes): + (“+” indicates greater than 50% inhibition at 10 μM); A11: inhibition of radioligand binding (Mouse urotensin (mUR2); mouse mUR2 membranes): − (“−” indicates less than 50% inhibition at 10 μM); A4: inhibition of radioligand binding (Human Melanocortin (MC4); human MC4 membranes): + (“+” indicates greater than 50% inhibition at 10 μM); A9: inhibition of radioligand binding ([2]; human NPY-Y1 membranes): − (“−” indicates less than 50% inhibition at 10 μM); A7: inhibition of radioligand binding (Human μ-opioid (MOP); human MOP membranes): − (“−” indicates less than 50% inhibition at 10 μM); A5: inhibition of radioligand binding (Human melanocortin (MC5); human MC5 membranes): + (“+” indicates greater than 50% inhibition at 10 μM); A1: inhibition of radioligand binding (Human δ-opioid (DOP); human DOP membranes): − (“−” indicates less than 50% inhibition at 10 μM)
